# Source: PubChem BioAssay (NCI)
#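 Protocol summary: plate cells (96-well), add compound at 5 concentrations, incubate 48 h, interpolate endpoints linearly. GI50 = concentration required for 50% inhibition of growth. Definition used: TGI = concentration required for complete inhibition of growth.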
# How the values were obtained:
# Assay in all cases: NCI-60 cell line screen, 48 h
# HCC-2998 colon = system: HCC-2998 colon
# RPMI-8226 leukemia = system: RPMI-8226 leukemia
# NCI/ADR-RES ovarian = system: NCI/ADR-RES ovarian
# UACC-62 melanoma = system: UACC-62 melanoma
# SK-MEL-28 melanoma = system: SK-MEL-28 melanoma
# OVCAR-3 ovarian = system: OVCAR-3 ovarian
# HOP-92 NSCLC = system: HOP-92 NSCLC
# MDA-MB-435 = system: MDA-MB-435
# LOX IMVI melanoma = system: LOX IMVI melanoma
# OVCAR-4 ovarian = system: OVCAR-4 ovarian
# SK-MEL-2 melanoma = system: SK-MEL-2 melanoma
# NCI-H460 lung = system: NCI-H460 lung
# HT29 colon = system: HT29 colon
# CAKI-1 renal = system: CAKI-1 renal
# HOP-62 NSCLC = system: HOP-62 NSCLC
# A498 renal = system: A498 renal
# IGROV1 ovarian = system: IGROV1 ovarian
# SW-620 colon = system: SW-620 colon
# UACC-257 melanoma = system: UACC-257 melanoma
# SF-539 CNS = system: SF-539 CNS
# HS 578T breast = system: HS 578T breast
# NCI-H522 lung = system: NCI-H522 lung
# SN12C renal = system: SN12C renal
# OVCAR-8 ovarian = system: OVCAR-8 ovarian
# CCRF-CEM leukemia = system: CCRF-CEM leukemia
# M14 melanoma = system: M14 melanoma
# COLO 205 colon = system: COLO 205 colon
# HCT-15 colon = system: HCT-15 colon
# SK-OV-3 ovarian = system: SK-OV-3 ovarian
# HL-60(TB) leukemia = system: HL-60(TB) leukemia
# TK-10 renal = system: TK-10 renal
# OVCAR-5 ovarian = system: OVCAR-5 ovarian
# BT-549 breast = system: BT-549 breast
# UO-31 renal = system: UO-31 renal
# T-47D breast = system: T-47D breast
# K-562 leukemia = system: K-562 leukemia
# MOLT-4 leukemia = system: MOLT-4 leukemia
# A549 NSCLC = system: A549 NSCLC
# MDA-MB-231 breast = system: MDA-MB-231 breast
# HCT-116 colon = system: HCT-116 colon
# EKVX NSCLC = system: EKVX NSCLC
# NCI-H226 lung = system: NCI-H226 lung
# SNB-19 CNS = system: SNB-19 CNS
# PC-3 prostate = system: PC-3 prostate
# SF-268 CNS = system: SF-268 CNS
# SF-295 CNS = system: SF-295 CNS
# DU-145 prostate = system: DU-145 prostate
# MALME-3M melanoma = system: MALME-3M melanoma
# KM12 colon = system: KM12 colon
# NCI-H23 lung = system: NCI-H23 lung
# 786-0 renal = system: 786-0 renal
# SR leukemia = system: SR leukemia
# MCF7 breast = system: MCF7 breast
# ACHN renal = system: ACHN renal
# U251 CNS = system: U251 CNS
# SK-MEL-5 melanoma = system: SK-MEL-5 melanoma
# SNB-75 CNS = system: SNB-75 CNS
compound,measurement,setting,value
O=C1CSC(c2cccc([N+](=O)[O-])c2)N1c1ccc(-c2ccc(-n3c(-c4ccccc4)nc4ccccc4c3=O)cc2)cc1 (stereo not drawn),TGI,HCC-2998 colon,> 100 µM
same,TGI,RPMI-8226 leukemia,> 100 µM
same,TGI,NCI/ADR-RES ovarian,> 100 µM
same,TGI,UACC-62 melanoma,> 100 µM
same,TGI,SK-MEL-28 melanoma,> 100 µM
same,TGI,OVCAR-3 ovarian,> 100 µM
same,TGI,HOP-92 NSCLC,> 100 µM
same,TGI,MDA-MB-435,> 100 µM
same,TGI,LOX IMVI melanoma,> 100 µM
same,TGI,OVCAR-4 ovarian,> 100 µM
same,TGI,SK-MEL-2 melanoma,> 100 µM
same,TGI,NCI-H460 lung,> 100 µM
same,TGI,HT29 colon,> 100 µM
same,TGI,CAKI-1 renal,> 100 µM
same,TGI,HOP-62 NSCLC,> 100 µM
same,TGI,A498 renal,> 100 µM
same,TGI,IGROV1 ovarian,> 100 µM
same,TGI,SW-620 colon,> 100 µM
same,TGI,UACC-257 melanoma,> 100 µM
same,TGI,SF-539 CNS,> 100 µM
same,TGI,HS 578T breast,> 100 µM
same,TGI,NCI-H522 lung,> 100 µM
same,TGI,SN12C renal,> 100 µM
same,TGI,OVCAR-8 ovarian,> 100 µM
same,TGI,CCRF-CEM leukemia,91.9 µM
same,TGI,M14 melanoma,> 100 µM
same,TGI,COLO 205 colon,> 100 µM
same,TGI,HCT-15 colon,> 100 µM
same,TGI,SK-OV-3 ovarian,> 100 µM
same,TGI,HL-60(TB) leukemia,> 100 µM
same,TGI,TK-10 renal,> 100 µM
same,TGI,OVCAR-5 ovarian,> 100 µM
same,TGI,BT-549 breast,98.3 µM
same,TGI,UO-31 renal,> 100 µM
same,TGI,T-47D breast,> 100 µM
same,TGI,K-562 leukemia,> 100 µM
same,TGI,MOLT-4 leukemia,> 100 µM
same,TGI,A549 NSCLC,> 100 µM
same,TGI,MDA-MB-231 breast,> 100 µM
same,TGI,HCT-116 colon,> 100 µM
same,TGI,EKVX NSCLC,> 100 µM
same,TGI,NCI-H226 lung,> 100 µM
same,TGI,SNB-19 CNS,> 100 µM
same,TGI,PC-3 prostate,> 100 µM
same,TGI,SF-268 CNS,> 100 µM
same,TGI,SF-295 CNS,> 100 µM
same,TGI,DU-145 prostate,> 100 µM
same,TGI,MALME-3M melanoma,> 100 µM
same,TGI,KM12 colon,81 µM
same,TGI,NCI-H23 lung,> 100 µM
same,TGI,786-0 renal,> 100 µM
same,TGI,SR leukemia,> 100 µM
same,TGI,MCF7 breast,92.6 µM
same,TGI,ACHN renal,> 100 µM
same,TGI,U251 CNS,> 100 µM
same,TGI,SK-MEL-5 melanoma,> 100 µM
O=C1c2ccccc2-c2c1c1ccc([N+](=O)[O-])cc1c(=O)n2CCCN1CCOCC1,GI50,HCC-2998 colon,> 41 µM
same,TGI,HCC-2998 colon,> 100 µM
same,GI50,RPMI-8226 leukemia,0.138 µM
same,TGI,RPMI-8226 leukemia,0.521 µM
same,GI50,NCI/ADR-RES ovarian,0.293 µM
same,TGI,NCI/ADR-RES ovarian,24.8 µM
same,GI50,UACC-62 melanoma,0.403 µM
same,TGI,UACC-62 melanoma,> 100 µM
same,GI50,SK-MEL-28 melanoma,> 100 µM
same,TGI,SK-MEL-28 melanoma,> 100 µM
same,GI50,OVCAR-3 ovarian,12.4 µM
same,TGI,OVCAR-3 ovarian,29.9 µM
same,TGI,HOP-92 NSCLC,> 41.1 µM
same,GI50,MDA-MB-435,0.867 µM
same,TGI,MDA-MB-435,> 100 µM
same,GI50,LOX IMVI melanoma,0.0813 µM
same,TGI,LOX IMVI melanoma,0.338 µM
same,GI50,OVCAR-4 ovarian,0.776 µM
same,TGI,OVCAR-4 ovarian,> 48.3 µM
same,GI50,SK-MEL-2 melanoma,> 61.2 µM
same,TGI,SK-MEL-2 melanoma,> 100 µM
same,GI50,NCI-H460 lung,0.193 µM
same,TGI,NCI-H460 lung,> 100 µM
same,GI50,SNB-75 CNS,1.01 µM
same,TGI,SNB-75 CNS,> 100 µM
same,GI50,CAKI-1 renal,0.232 µM
same,TGI,CAKI-1 renal,> 100 µM
same,GI50,HOP-62 NSCLC,0.0486 µM
same,TGI,HOP-62 NSCLC,0.346 µM
same,GI50,A498 renal,> 38.8 µM
same,TGI,A498 renal,> 92.4 µM
same,GI50,IGROV1 ovarian,0.238 µM
same,TGI,IGROV1 ovarian,> 100 µM
same,GI50,SW-620 colon,0.16 µM
same,TGI,SW-620 colon,> 100 µM
same,GI50,UACC-257 melanoma,19.6 µM
same,TGI,UACC-257 melanoma,> 100 µM
same,GI50,SF-539 CNS,0.119 µM
same,TGI,SF-539 CNS,0.415 µM
same,GI50,HS 578T breast,5.97 µM
same,TGI,HS 578T breast,> 56.7 µM
same,GI50,NCI-H522 lung,0.424 µM
same,TGI,NCI-H522 lung,> 100 µM
same,GI50,SN12C renal,0.333 µM
same,TGI,SN12C renal,> 100 µM
same,GI50,OVCAR-8 ovarian,0.32 µM
same,TGI,OVCAR-8 ovarian,> 100 µM
same,GI50,CCRF-CEM leukemia,0.0224 µM
same,TGI,CCRF-CEM leukemia,0.121 µM
same,GI50,M14 melanoma,0.122 µM
same,TGI,M14 melanoma,0.495 µM
same,GI50,COLO 205 colon,7.92 µM
same,TGI,COLO 205 colon,> 100 µM
same,GI50,HCT-15 colon,0.396 µM
same,TGI,HCT-15 colon,> 100 µM
same,GI50,SK-OV-3 ovarian,6.57 µM
same,TGI,SK-OV-3 ovarian,> 100 µM
same,GI50,HL-60(TB) leukemia,0.147 µM
same,TGI,HL-60(TB) leukemia,> 100 µM
same,GI50,TK-10 renal,25.2 µM
same,TGI,TK-10 renal,> 100 µM
same,GI50,OVCAR-5 ovarian,13 µM
same,TGI,OVCAR-5 ovarian,> 100 µM
same,GI50,BT-549 breast,0.311 µM
same,TGI,BT-549 breast,16.7 µM
same,GI50,UO-31 renal,0.195 µM
same,TGI,UO-31 renal,> 100 µM
same,GI50,T-47D breast,0.0971 µM
same,TGI,T-47D breast,> 100 µM
same,GI50,K-562 leukemia,0.324 µM
same,TGI,K-562 leukemia,> 100 µM
same,GI50,MOLT-4 leukemia,0.0625 µM
same,TGI,MOLT-4 leukemia,> 100 µM
same,GI50,A549 NSCLC,9.37 µM
same,TGI,A549 NSCLC,> 100 µM
same,GI50,MDA-MB-231 breast,24.8 µM
same,TGI,MDA-MB-231 breast,> 87.4 µM
same,GI50,HCT-116 colon,0.0851 µM
same,TGI,HCT-116 colon,1.81 µM
same,GI50,EKVX NSCLC,20.9 µM
same,TGI,EKVX NSCLC,> 92.7 µM
same,GI50,NCI-H226 lung,> 34.3 µM
same,TGI,NCI-H226 lung,> 64.8 µM
same,GI50,SNB-19 CNS,0.378 µM
same,TGI,SNB-19 CNS,> 52.6 µM
same,GI50,PC-3 prostate,0.291 µM
same,TGI,PC-3 prostate,> 100 µM
same,GI50,SF-268 CNS,0.114 µM
same,TGI,SF-268 CNS,> 100 µM
same,GI50,SF-295 CNS,0.182 µM
same,TGI,SF-295 CNS,31.8 µM
same,GI50,DU-145 prostate,0.084 µM
same,TGI,DU-145 prostate,3.09 µM
same,GI50,MALME-3M melanoma,0.268 µM
same,TGI,MALME-3M melanoma,24.7 µM
same,GI50,KM12 colon,0.258 µM
same,TGI,KM12 colon,> 100 µM
same,GI50,NCI-H23 lung,0.16 µM
same,GI50,786-0 renal,0.135 µM
same,TGI,786-0 renal,2.32 µM
same,GI50,SR leukemia,0.0139 µM
same,TGI,SR leukemia,> 100 µM
same,GI50,MCF7 breast,< 0.0166 µM
same,TGI,MCF7 breast,> 100 µM
same,GI50,ACHN renal,0.128 µM
same,GI50,U251 CNS,0.0923 µM
same,TGI,U251 CNS,15.8 µM
